The record followed here is patent publication US9434687B2, “Detection of synthetic cannabinoids” (priority 2011, dated 2016).

Common to all, as to assay type: binding, sheep
Experiment [1] has as its system IgG fraction of antiserum raised to Immunogen I. As to conditions: Antibody to Immunogen I; cross-reactants at 100 ng/ml; 1000 ng/ml; standard JWH-018. In short, it runs like this:
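Plates were coated with the IgG fraction of sheep antiserum raised to Immunogen I and incubated with standards (JWH-018, 0-40 ng/ml) plus hapten-HRP conjugate for 1 h at 25° C. Detection used TMB, read at 450 nm. IC50 was taken from a 4-parameter fit as the concentration giving half the zero-standard OD.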

The subject of experiment [2] is IgG fraction of antiserum raised to Immunogen VIII. As to conditions: Antibody to Immunogen VIII; cross-reactants at 100 ng/ml; 1000 ng/ml; standard JWH-018.
For experiment [3], the system named is IgG fraction of antiserum raised to Immunogen VII. As to conditions: Antibody to Immunogen VII; cross-reactants at 100 ng/ml; 1000 ng/ml; standard JWH-015.
In experiment [4] the test system is IgG fraction of antiserum raised to Immunogen IV. As to conditions: Antibody to Immunogen IV; cross-reactants at 100 ng/ml; 1000 ng/ml; standard JWH-018.
Experiment [5] relates to antibodies raised to Immunogens I & II. The experiment can be described thus: Competitive ELISA, selected molecules as potential cross-reactants (Table 3). As to conditions: for % CR / IC50: Table 3, standard conc 750.00 ng/ml. On the procedure: (a) The wells of an enhanced binding 96 well polystyrene microtiter plate were coated with the Ig fraction of the antiserum raised to Immunogen I (Hapten A-BTG—example 5) and diluted in 10 mM Tris, pH8.5 (125 μl/well). The appropriate antibody coating concentration was determined using standard ELISA checkerboard techniques. The plate was incubated for 2 hours at 37° C., washed 4 times over a 10-minute period with Tris buffered saline containing Tween 20 (TBST) and tapped dry. Standard solutions of JWH synthetic cannabinoids, metabolites and selected molecules were prepared in TBST and 50 μl of each was added to the appropriate wells. 75 μl of conjugate (Hapten A-HRP) diluted in Tris buffer containing EDTA, D-mannitol, sucrose, thimerosal and BSA, was added to each of the wells. The appropriate dilution of conjugate was also determined using standard ELISA checkerboard techniques. The plate was incubated at 25° C. for 1 hour. The excess unbound conjugate was removed by washing 6 times over a 10-minute period with TBST and tapped dry. 125 μl of tetramethylbenzedine (TMB) substrate solution was added to each well of the plate that was then incubated for 15-20 minutes in the dark at room temperature. The reaction was terminated by addition of 125 μl of 0.2M sulphuric acid to each well. The absorbance was then measured at 450 nm using a microtiter plate reader.
Employing each series of standards, calibration curves were generated and these were used to determine the specificity of the immunoassay for the JWH synthetic cannabinoids, metabolites and selected molecules. The results of this study are presented in Tables 1 to 3, cross-reactivity being calculated according to the following formula: % CR=IC50,JWH-018/IC50,CR×100
Where % CR is the percentage cross-reactivity, IC50, JWH-018 is the concentration of JWH-018 that causes 50% displacement of signal and IC50, CR is the concentration of JWH synthetic cannabinoid/metabolite/selected molecule that causes 50% displacement of signal.
The antibody produced from Immunogen I is able to bind to JWH molecules known to be incorporated in herbal therapeutics such as JWH-018, proposed metabolites such as M2 (Wintermeyer et al 2010), and potential metabolites such as M5. The detection and quantification of other JWH SSCs is also provided for, the antibodies of the invention bind a range of molecules comprising the 3-(1-naphthoyl)-1H-indole structure (e.g. JWH-071, JWH-398, M1 etc.). […] The concept of using the antibodies of the invention to detect and determine future stealth synthetic cannabinoids is highlighted in Table 4; the 5-fluoropentyl derivative known to bind the CB 1 receptor, but which as of yet has not been detected in herbal therapeutics or similar substances, binds to antibodies raised from Immunogens I and II.
Background: ELISA stands for enzyme-linked immunosorbent assay.

As for `CCCCCc1cc(O)c2c(c1)OC(C)(C)[C@@H]1CCC(C)=C[C@@H]21` [Delta 9 THC], the “% B/B0” value in experiment [1] was 102.66%; in experiment [2], 96.10%; in experiment [3] it was 96.76%; in experiment [4], 93.62%. Further, in experiment [5], the “% CR” value is listed as less than 0.28%. Besides, the IC50 (commonly the concentration at which inhibition is half-maximal) in experiment [5] was greater than 750.00 ng/mL.
In the case of `CCCCCCC(C)(C)c1ccc([C@H]2CCC[C@@H](O)C2)c(O)c1` [CP-49,497-C7], the “% B/B0” value in experiment [1] is given as 101.20%; in experiment [2], 86.95%; in experiment [3], 94.23%; in experiment [4], 96.84%. The “% CR” value in experiment [5] was less than 0.28%. In experiment [5], the concentration for half-maximal inhibition (IC50) is greater than 750.00 ng/mL.
For `CCCCCc1cc(O)c2c(c1)OC(C)(C)c1ccc(C)cc1-2` [Cannabinol], the “% B/B0” value in experiment [1] is 86.60%; in experiment [2], 94.03%; in experiment [3] it was 95.43%; in experiment [4], 94.74%. Moreover, the “% CR” value in experiment [5] is on record as less than 0.28%. In experiment [5], the IC50 is greater than 750.00 ng/mL.
`O=C(O)c1c[nH]c2ccccc12` [Indole-3-carboxylic Acid]: the “% B/B0” value stood at 101.26% in experiment [1], 96.28% in experiment [2], 96.90% in experiment [3] and 93.42% in experiment [4]. Moreover, the “binding / cross-reaction with antibodies raised from Immunogens I and II (in words)” value in experiment [5] was “do not cross-react”. In addition, the “% CR” value in experiment [5] is listed as less than 0.28%. Besides, the IC50 in experiment [5] is greater than 750.00 ng/mL.
In the case of `O=C(O)Cc1c[nH]c2ccc(O)cc12` [5-hydroxyindole-3-acetic acid], the “% B/B0” value in experiment [1] stood at 98.71%; in experiment [2] it was 108.24%; in experiment [3] it was 99.46%; in experiment [4], 96.61%. Also, in experiment [5], the “% CR” value is less than 0.28%. In addition, the half-inhibitory concentration (IC50) in experiment [5] is greater than 750.00 ng/mL.
In the case of `OCCc1c[nH]c2ccc(O)cc12` [5-hydroxytryptophol], the “% B/B0” value is 93.30% in experiment [1], 102.93% in experiment [2], 98.45% in experiment [3] and 94.51% in experiment [4]. In addition, the “% CR” value in experiment [5] is listed as less than 0.28%. In experiment [5], the IC50 is greater than 750.00 ng/mL.
On to `COc1cccc2[nH]cc(CCN(C)C)c12` [4-Methoxypsilocin], for which, in experiment [5], the “% CR” value is on record as less than 0.28% and the IC50 is greater than 750.00 ng/mL.
